Experimental data: patent publication US20240190872A1, “FABI INHIBITORS FOR GRAM-NEGATIVE PATHOGENS” (THE BOARD OF TRUSTEES OF THE UNIVERSITY OF ILLINOIS, priority 2021, published 2024)
Converted amounts (≈) assume the structure as drawn.

Legend:
[1] = tested on: carbapenem resistant E. coli; experiment: MIC against infecting strain of the UTI model; format: cell-based; conditions: Escherichia coli; extensively resistant carbapenem resistant E. coli of UTI model
Description: (§1) UTIs represent one of the biggest risks for healthy individuals in terms of exposure to antibiotic-resistant bacteria and many individuals contract one in their lifetime (roughly 1 in 2 women and 1 in 10 men); as such, these infections from Gram-negative pathogens, particularly those that are drug-resistant, remain a major clinical challenge. As E. coli is the causative agent in the great majority of UTIs fabimycin was evaluated in a murine UTI model with a challenging, extensively resistant strain of carbapenem resistant E. coli (fabimycin MIC=2 μg/mL). When dosed at 33.3 mg/kg, TID fabimycin was able to achieve 3.0, 2.8, 2.9, and 1.9 log10 reductions in bacterial load relative to the vehicle in the spleen, bladder, liver, and kidneys tissues, respectively (FIG. 4).

A. baumannii FabI = A. baumannii FabI (Acinetobacter baumannii, UniProt D0CAD5); experiment: biochemical
A. baumannii AR-299 = experiment: Acute pneumonia (lung) infection; format: in vivo, CD-1 mice; conditions: 50 mg/kg, intramuscular (QD), 48 h
Description: With formulation, MTD, and pharmacokinetic data in hand, the efficacy of fabimycin was evaluated in murine infection models. To start, a comparative assessment was made of fabimycin and Debio-1452-NH3 in two murine neutropenic infection models using a dosing regimen that is at the MTD for Debio-1452-NH3 but below the MTD for fabimycin (three doses, intramuscular, at 50 mg/kg).
Chart 1. Summary of Fabimycin in vivo models.

E. coli AR-55 = experiment: Murine urinary tract infection (UTI) model; format: in vivo, C3H/HeJ mice; conditions: TID
Description: FIG. 4. In-vivo efficacy of fabimycin in a murine UTI. After inducing diuresis, infection initiated in C3H/HeJ mice (8 per arm, 1.38×10^9 CFU/mouse transurethral) with E. coli AR-55 and treated with fabimycin at varying concentrations three times daily with bacterial enumeration at 168 h post-infection. Percentage in parenthesis indicates the percentage of animals with bacterial counts below the limit of detection (LOD).
as §1
Chart 1. Summary of Fabimycin in vivo models. Log reductions are relative to the vehicle. • S. aureus • Neutropenic thigh infection w/S. aureus USA300 LAC • 5 mg/kg, r.o. • 26 h, 2.6 log reduction • A. baumannii • Neutropenic thigh infection w/A. baumannii AR-0299 • 50 mg/kg, intramuscular (2, 6, and 11 h post-infection) • 26 h, 2.3 log reduction • Acute lung infection w/A. baumannii AR-0299 • 50 mg/kg, intramuscular (QD) • 48 h, 3.9 log reduction • Neutropenic thigh infection w/A. baumannii AR-0088 • 75 mg/kg IV, QID • 26 h, 1.75 log reduction • E. coli • Urinary tract infection w/E. coli AR-0055 • 33.3 mg/kg IV, TID (100 mg/kg a day) • 168 h post-infection • Bladder—2.78 log reduction • Liver—2.85 log reduction • Spleen—3.04 log reduction • Kidneys—1.85 log reduction • Urine—2.32 log reduction

in vitro = conditions: dog
[2] = 33.3 mg/kg IV, 168 h post-infection

A. baumannii FabI, sequence (D0CAD5 1-288): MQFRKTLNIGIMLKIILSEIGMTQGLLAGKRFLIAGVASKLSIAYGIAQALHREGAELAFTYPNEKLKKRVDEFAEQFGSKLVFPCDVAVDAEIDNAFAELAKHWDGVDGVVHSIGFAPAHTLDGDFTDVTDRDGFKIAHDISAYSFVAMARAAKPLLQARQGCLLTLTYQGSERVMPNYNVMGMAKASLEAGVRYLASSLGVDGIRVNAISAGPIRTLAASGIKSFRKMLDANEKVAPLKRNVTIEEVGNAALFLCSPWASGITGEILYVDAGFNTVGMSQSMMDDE

SMILES: Cc1c(CN(C)C(=O)/C=C/c2cnc3c(c2)CC[C@H](N)C(=O)N3)oc2ccccc12 [(S)-11, (S,E)-3-(7-amino-8-oxo-6,7,8,9-tetrahydro-5H-pyrido[2,3-b]azepin-3-yl)-N-methyl-N-((3-methylbenzofuran-2-yl)methyl)acrylamide]
- MIC [1]: 2 µg/mL (≈ 4.94 µM)
- fold change in Ki^app relative to Debio-1452-NH3 (A. baumannii FabI; A. baumannii FabI, 3 vs. 114 nM): > 30 fold
- Ki (A. baumannii FabI; purified FabI, apparent inhibition constant, read-out: A. baumannii FabI Ki^app): 3 nM
- fold more potent than (R)-11 against A. baumannii FabI (A. baumannii FabI; relative to opposite enantiomer (R)-11): ~30 fold
- log reduction relative to the vehicle (A. baumannii AR-299): 3.9 log
- log reduction relative to the vehicle, Bladder (E. coli AR-55; [2]): 2.78 log
- log reduction relative to the vehicle, Kidneys (E. coli AR-55; [2]): 1.85 log
- log reduction relative to the vehicle, Liver (E. coli AR-55; [2]): 2.85 log
- log reduction relative to the vehicle, Spleen (E. coli AR-55; [2]): 3.04 log
- log reduction relative to the vehicle, Urine (E. coli AR-55; [2]): 2.32 log
- log10 reduction in bacterial load relative to the vehicle, bladder (E. coli AR-55; 33.3 mg/kg): 2.8 log10
- log10 reduction in bacterial load relative to the vehicle, kidneys (E. coli AR-55; 33.3 mg/kg): 1.9 log10
- log10 reduction in bacterial load relative to the vehicle, liver (E. coli AR-55; 33.3 mg/kg): 2.9 log10
- log10 reduction in bacterial load relative to the vehicle, spleen (E. coli AR-55; 33.3 mg/kg): 3.0 log10
- efflux ratio (in vitro; MDCK-MDR1): 9.4
- Papp (in vitro; MDCK-MDR1, MDR1-MDCK Permeability Papp A:B): 0.6 ×10⁻⁶ cm/s
- Papp (in vitro; MDCK-MDR1, MDR1-MDCK Permeability Papp B:A): 5.7 ×10⁻⁶ cm/s
- Plasma protein binding, Mouse (Plasma protein binding; Mouse): 96%
- fraction unbound (Plasma protein binding; mouse, plasma): 0.04
